In publication PMC3583800, “Identification of active Plasmodium falciparum calpain to establish screening system for Pf-calpain-based drug development” (Malaria Journal, 2013):

Molecular target: T1, rPfcal-IIa (Pf-calpain catalytic subdomain IIa) (Plasmodium falciparum, UniProt E5LAD0)
T1 construct: also baculovirus/High Five for the mutation study; monomeric proposed
T1 sequence (E5LAD0 822-1216): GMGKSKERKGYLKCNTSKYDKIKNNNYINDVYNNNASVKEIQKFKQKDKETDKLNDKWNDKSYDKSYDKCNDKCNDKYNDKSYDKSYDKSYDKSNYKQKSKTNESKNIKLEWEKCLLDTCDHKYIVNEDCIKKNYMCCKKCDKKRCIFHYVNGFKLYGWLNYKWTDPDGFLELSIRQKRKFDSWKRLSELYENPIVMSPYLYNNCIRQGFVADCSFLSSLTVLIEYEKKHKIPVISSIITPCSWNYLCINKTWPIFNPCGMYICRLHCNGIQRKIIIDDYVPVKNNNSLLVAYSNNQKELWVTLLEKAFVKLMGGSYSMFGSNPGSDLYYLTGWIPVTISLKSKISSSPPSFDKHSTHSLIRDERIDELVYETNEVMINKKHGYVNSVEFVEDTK
Test: fluorogenic Suc-LLVY-AMC assay and gelatin zymography
Assay type: biochemical
Conditions: 100 μM inhibitor pre-incubated 1 h at 37°C; 20 μM Suc-LLVY-AMC, 100 mM Tris-HCl pH 7.5, 1 mM DTT

`CC(C)C[C@H](NC(=O)[C@@H]1O[C@H]1C(=O)O)C(=O)NCCCCNC(=N)N` [E-64] was tested, and the “inhibition at 100 μM” value was “enzymatic activity of rPfcal-IIa protein was significantly inhibited by ALLN and E-64”.
